One series concerns the target PI3Kβ (Homo sapiens, UniProt P42338). The series can be described thus: Fluorescent determination of PI3Kinase enzyme activity (HTRF), PI3Kβ. The series is classed as biochemical. An excerpt: (§1) Fluorescent Determination of PI3Kinase Enzyme Activity
(§2) Phosphoinositide 3 kinases (PI3K) belong to a class of Lipid kinases that play a critical role in the regulation of several key cellular processes. The PI3K are capable of phosphorylating the 3-hydroxy position of phosphoinositols thereby generating second messengers involved in downstream signalling events. The homogenous time resolved fluorescence (HTRF) assay allows detection of 3,4,5-triphosphate (PIP3) formed as a result of phosphorylation of phosphotidylinositol 4,5-biphosphate (PIP2) by PI3K isoforms such as α, […], γ or δ.
(§3) PI3K isoform activity for α, β, γ or δ is to be determined using a PI3K human HTRF™ Assay Kit (Millipore, Billerica, Mass.) with modifications. All incubations were carried out at room temperature. Briefly, 0.5 μl of 40× inhibitor (in 100% DMSO) or 100% DMSO were added to each well of a 384-well black plate (Greiner Bio-One, Monroe, N.C.) containing 14.5 μl 1× reaction buffer/PIP2 (10 mM MgCl2, 5 mM DTT, 1.38 μM PIP2) mix with or without enzyme and incubated for 10 min. After the initial incubation, 5 μl/well of 400 μM ATP was added and incubated for an additional 30 minutes. Reaction was terminated by adding 5 μl/well stop solution (Millipore, Billerica, Mass.). Five microliters of detection mix (Millipore, Billerica, Mass.) were then added to each well and was incubated for 6-18 h in the dark. HRTF ratio was measured on a microplate reader (BMG Labtech, Germany) at an excitation wavelength of 337 nm and emission wavelengths of 665 and 620 nm with an integration time of 400 μsec. Data was analyzed using Graphpad Prism (Graphpad software; San Diego Calif.) for IC50 determination).
On the technique in general: Time-resolved FRET reads energy transfer from a long-lived donor to a nearby acceptor.

A further series has as its target PI3Kδ (Homo sapiens, UniProt O00329). The experiment in a line: Fluorescent determination of PI3Kinase enzyme activity (HTRF), PI3Kδ. The series is classed as biochemical. Conditions: for inhibition at 0.1 µM: 100 nM (underlined values: 300 nM).
Description: as §1, §2, §3

A further series concerns the target PI3Kγ (Homo sapiens, UniProt P48736). The series can be described thus: Fluorescent determination of PI3Kinase enzyme activity (HTRF), PI3Kγ. The series is classed as biochemical. Conditions: for inhibition at 0.1 µM: 100 nM (underlined values: 300 nM).
Description: as §1, §2, §3

For a further series, the target named is PI3Kα (Homo sapiens, UniProt P42336). The experiment in a line: Fluorescent determination of PI3Kinase enzyme activity (HTRF), PI3Kα. The series is classed as biochemical.
Chain of PI3Kα (P42336 whole entry): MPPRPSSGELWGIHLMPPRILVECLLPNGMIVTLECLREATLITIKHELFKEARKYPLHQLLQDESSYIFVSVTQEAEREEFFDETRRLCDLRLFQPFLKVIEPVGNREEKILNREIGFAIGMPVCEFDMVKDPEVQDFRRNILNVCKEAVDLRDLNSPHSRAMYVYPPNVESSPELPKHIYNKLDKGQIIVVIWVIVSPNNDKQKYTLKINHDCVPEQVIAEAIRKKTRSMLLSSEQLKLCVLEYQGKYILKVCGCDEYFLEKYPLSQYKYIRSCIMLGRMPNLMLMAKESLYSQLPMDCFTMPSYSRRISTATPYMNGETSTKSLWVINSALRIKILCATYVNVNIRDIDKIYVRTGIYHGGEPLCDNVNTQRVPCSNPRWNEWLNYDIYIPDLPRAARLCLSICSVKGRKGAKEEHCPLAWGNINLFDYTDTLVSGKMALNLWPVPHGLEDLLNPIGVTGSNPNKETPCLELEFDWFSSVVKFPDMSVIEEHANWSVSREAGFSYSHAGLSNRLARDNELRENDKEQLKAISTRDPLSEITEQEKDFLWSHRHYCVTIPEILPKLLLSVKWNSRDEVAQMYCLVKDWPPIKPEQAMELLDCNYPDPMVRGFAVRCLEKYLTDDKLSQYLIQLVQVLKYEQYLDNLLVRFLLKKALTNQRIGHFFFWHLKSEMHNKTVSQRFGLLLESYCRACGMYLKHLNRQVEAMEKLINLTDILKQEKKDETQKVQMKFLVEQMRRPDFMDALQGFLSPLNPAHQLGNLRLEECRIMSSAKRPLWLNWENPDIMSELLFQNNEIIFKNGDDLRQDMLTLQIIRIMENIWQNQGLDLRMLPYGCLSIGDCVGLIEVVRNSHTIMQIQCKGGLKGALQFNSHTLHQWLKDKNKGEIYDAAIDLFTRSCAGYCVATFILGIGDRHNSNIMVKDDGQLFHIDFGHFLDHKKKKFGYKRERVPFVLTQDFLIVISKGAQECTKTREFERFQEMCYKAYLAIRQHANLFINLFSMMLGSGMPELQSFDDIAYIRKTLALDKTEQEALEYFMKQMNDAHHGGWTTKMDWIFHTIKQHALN
Chain of PI3Kα (P27986 whole entry partner): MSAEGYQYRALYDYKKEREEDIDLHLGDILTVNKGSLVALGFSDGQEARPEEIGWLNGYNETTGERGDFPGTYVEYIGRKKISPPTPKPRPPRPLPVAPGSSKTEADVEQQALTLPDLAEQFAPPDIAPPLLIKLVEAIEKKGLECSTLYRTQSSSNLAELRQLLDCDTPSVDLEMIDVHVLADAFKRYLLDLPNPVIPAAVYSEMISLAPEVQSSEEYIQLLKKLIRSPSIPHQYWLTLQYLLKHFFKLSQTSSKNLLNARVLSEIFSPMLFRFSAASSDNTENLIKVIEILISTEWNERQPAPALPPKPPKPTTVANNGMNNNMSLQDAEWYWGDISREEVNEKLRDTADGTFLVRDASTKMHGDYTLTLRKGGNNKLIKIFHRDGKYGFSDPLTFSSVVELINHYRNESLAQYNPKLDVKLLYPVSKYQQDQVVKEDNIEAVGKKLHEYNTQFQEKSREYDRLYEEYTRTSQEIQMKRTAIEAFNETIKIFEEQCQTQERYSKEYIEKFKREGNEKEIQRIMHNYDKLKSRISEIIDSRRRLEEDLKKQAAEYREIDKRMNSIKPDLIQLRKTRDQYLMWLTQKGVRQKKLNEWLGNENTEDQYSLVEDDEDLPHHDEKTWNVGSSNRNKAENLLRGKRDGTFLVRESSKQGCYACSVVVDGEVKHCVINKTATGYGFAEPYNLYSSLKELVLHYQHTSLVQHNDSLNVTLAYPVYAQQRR
Description: as §1, §2, §3

Molecules are shown by their SMILES. Structures can show the parent of a compound that is named as a salt.

Chain of PI3Kγ (P48736 whole entry): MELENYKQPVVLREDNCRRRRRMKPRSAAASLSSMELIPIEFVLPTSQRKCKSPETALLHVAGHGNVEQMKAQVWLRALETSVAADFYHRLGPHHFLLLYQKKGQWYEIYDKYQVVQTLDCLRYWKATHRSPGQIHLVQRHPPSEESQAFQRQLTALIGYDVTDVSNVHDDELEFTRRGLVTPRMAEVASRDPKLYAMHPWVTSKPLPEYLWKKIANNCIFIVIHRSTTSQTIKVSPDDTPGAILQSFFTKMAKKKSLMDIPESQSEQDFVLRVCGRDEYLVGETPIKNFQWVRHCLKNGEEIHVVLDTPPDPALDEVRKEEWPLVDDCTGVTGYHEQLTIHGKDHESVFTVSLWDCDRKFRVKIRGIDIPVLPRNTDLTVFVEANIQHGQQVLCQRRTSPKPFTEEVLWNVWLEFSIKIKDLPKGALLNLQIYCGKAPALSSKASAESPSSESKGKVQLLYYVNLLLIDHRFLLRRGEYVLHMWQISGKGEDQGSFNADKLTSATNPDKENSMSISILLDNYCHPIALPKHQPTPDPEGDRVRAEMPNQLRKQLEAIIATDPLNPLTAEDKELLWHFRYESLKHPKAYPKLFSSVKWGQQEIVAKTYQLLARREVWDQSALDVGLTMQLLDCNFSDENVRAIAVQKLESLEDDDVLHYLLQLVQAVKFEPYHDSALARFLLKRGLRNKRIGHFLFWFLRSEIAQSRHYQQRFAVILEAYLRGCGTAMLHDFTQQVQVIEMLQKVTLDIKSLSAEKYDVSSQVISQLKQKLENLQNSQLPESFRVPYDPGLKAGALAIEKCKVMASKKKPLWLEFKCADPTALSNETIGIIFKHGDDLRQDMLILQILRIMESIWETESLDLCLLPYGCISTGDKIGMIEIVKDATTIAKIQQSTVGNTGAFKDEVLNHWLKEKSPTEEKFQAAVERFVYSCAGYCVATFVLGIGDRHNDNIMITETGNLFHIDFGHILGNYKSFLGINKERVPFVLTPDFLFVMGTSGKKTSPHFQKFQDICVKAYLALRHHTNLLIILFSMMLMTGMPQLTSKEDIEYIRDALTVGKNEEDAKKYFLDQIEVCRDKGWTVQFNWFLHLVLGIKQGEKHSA
Chain of PI3Kβ (P42338 whole entry, canonical isoform): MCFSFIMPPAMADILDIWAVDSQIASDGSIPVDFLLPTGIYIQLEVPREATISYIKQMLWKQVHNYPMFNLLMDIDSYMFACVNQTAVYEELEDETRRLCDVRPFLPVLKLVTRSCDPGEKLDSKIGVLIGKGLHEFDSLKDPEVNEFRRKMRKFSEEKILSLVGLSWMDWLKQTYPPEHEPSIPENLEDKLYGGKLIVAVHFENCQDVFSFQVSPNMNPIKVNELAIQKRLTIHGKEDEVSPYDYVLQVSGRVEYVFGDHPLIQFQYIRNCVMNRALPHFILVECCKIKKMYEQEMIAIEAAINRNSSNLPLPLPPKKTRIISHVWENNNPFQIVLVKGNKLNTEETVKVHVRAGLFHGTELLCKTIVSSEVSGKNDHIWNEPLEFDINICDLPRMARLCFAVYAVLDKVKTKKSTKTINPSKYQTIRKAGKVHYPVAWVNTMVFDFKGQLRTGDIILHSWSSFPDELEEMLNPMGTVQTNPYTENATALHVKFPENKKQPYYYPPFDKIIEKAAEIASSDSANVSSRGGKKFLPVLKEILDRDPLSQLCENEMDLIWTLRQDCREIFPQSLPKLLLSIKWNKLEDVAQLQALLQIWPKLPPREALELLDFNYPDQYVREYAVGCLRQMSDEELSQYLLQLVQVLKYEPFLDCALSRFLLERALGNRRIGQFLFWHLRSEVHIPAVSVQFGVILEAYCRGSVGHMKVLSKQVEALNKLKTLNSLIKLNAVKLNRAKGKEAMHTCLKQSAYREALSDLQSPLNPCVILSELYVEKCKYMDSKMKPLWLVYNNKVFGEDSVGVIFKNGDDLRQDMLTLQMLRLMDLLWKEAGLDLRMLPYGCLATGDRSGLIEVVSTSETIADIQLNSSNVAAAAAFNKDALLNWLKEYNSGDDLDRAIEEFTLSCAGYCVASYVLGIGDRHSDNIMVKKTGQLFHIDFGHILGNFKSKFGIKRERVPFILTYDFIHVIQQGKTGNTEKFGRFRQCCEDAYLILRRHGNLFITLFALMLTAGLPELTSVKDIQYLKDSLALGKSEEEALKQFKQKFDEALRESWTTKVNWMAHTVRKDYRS
Chain of PI3Kβ (P27986 whole entry partner, canonical isoform): as the sequence (P27986 whole entry partner) above
Chain of PI3Kδ (O00329 whole entry): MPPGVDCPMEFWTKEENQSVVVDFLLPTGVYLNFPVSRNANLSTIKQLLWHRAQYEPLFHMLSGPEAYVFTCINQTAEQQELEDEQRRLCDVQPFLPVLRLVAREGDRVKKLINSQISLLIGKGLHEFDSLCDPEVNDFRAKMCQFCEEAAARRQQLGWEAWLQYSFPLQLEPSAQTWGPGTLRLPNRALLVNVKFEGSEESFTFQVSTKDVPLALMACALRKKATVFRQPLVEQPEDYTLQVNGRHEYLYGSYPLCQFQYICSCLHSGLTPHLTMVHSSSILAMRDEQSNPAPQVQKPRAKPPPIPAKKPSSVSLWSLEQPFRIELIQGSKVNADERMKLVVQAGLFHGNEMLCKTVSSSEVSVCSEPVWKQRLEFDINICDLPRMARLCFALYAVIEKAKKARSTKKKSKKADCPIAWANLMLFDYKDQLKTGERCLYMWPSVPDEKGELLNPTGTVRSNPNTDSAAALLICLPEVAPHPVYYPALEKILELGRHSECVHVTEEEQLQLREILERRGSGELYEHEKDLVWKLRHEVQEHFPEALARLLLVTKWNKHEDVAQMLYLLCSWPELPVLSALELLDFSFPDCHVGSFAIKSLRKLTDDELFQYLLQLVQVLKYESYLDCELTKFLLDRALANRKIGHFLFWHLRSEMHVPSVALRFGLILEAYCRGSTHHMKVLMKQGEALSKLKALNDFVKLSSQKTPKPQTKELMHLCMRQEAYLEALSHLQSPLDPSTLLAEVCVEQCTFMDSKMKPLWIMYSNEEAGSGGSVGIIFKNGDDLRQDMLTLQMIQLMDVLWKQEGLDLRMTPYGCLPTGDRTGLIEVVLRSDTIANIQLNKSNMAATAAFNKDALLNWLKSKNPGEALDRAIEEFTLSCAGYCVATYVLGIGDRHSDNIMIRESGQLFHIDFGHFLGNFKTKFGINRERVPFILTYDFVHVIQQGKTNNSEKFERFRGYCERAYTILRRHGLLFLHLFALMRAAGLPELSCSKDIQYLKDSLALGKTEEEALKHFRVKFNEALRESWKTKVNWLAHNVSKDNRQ
Chain of PI3Kδ (P27986 whole entry partner): as the sequence (P27986 whole entry partner) above

`CC(C)Oc1ccc(-c2nn(C(C)c3nc4ccc(F)cc4c(=O)n3-c3ccccc3)c3ncnc(N)c23)cc1F` (centres unmarked) (as salt: potassium) [Example 4, 2-(1-(4-amino-3-(3-fluoro-4-isopropoxyphenyl)-1H-pyrazolo[3,4-d]pyrimidin-1-yl)ethyl)-6-fluoro-3-phenylquinazolin-4(3H)-one]: the melting point was 215 to 218 °C.
Consider `Cc1n[nH]c2cc(-c3nn(C(C)c4cc5cccc(Cl)c5c(=O)n4-c4ccccc4)c4ncnc(N)c34)ccc12` (centres unmarked) [Example 21, 3-(1-(4-amino-3-(3-methyl-1H-indazol-6-yl)-1H-pyrazolo[3,4-d]pyrimidin-1-yl)ethyl)-8-chloro-2-phenylisoquinolin-1(2H)-one], for which the melting point fell in the range of 289 to 291 °C. This molecule had an inhibition at 1 µM at PI3Kβ of 60 to 80%. For the same molecule, the inhibition at 0.1 µM on PI3Kδ is 80 to 100%. This molecule registered an inhibition at 0.1 µM on PI3Kγ of 60 to 80%. For the same molecule, on PI3Kα, the inhibition at 1 µM fell in the range of 20 to 40%.
Consider `CCC(c1nc2ccccc2c(=O)n1-c1ccccc1)n1nc(-c2ccc(OC(C)C)c(F)c2)c2c(N)ncnc21` (centres unmarked) [Example 22, 2-{1-[4-Amino-3-(3-fluoro-4-isopropoxy-phenyl)-pyrazolo[3,4-d]pyrimidin-1-yl]-propyl}-3-phenyl-3H-quinazolin-4-one], for which the melting point lay in the range of 261 to 263 °C.
The molecule `CC(C)Oc1ccc(-c2nn(C(C)c3nc4ccccc4c(=O)n3-c3ccccc3)c3ncnc(N)c23)cc1F` (centres unmarked) (as salt: potassium) [Example 6, 2-(1-(4-amino-3-(3-fluoro-4-isopropoxyphenyl)-1H-pyrazolo[3,4-d]pyrimidin-1-yl)ethyl)-3-phenylquinazolin-4(3H)-one] returned a melting point of 236 to 239 °C.
On to `C[C@@H](c1cc2cccc(Cl)c2c(=O)n1-c1ccccc1)n1nc(-c2ccc(O)c(F)c2)c2c(N)ncnc21` [Example 14a, (+)-3-(1-(4-amino-3-(3-fluoro-4-hydroxyphenyl)-1H-pyrazolo[3,4-d]pyrimidin-1-yl)ethyl)-8-chloro-2-phenylisoquinolin-1(2H)-one], for which the inhibition at 1 µM at PI3Kβ lay within 10 to 20%; on PI3Kα, 0 to 10%. The IC50 came out at 4.2 nM on PI3Kδ and 19.5 nM on PI3Kγ. In addition, the inhibition at 0.1 µM against PI3Kδ and at PI3Kγ was 80 to 100% each time.
For the molecule `C[C@@H](c1nc2cccc(F)c2c(=O)n1-c1ccccc1)n1nc(-c2ccc(O)c(F)c2)c2c(N)ncnc21` [Example 16a, (+)-2-(1-(4-amino-3-(3-fluoro-4-hydroxyphenyl)-1H-pyrazolo[3,4-d]pyrimidin-1-yl)ethyl)-5-fluoro-3-phenylquinazolin-4(3H)-one], the results for the inhibition at 1 µM at PI3Kβ and on PI3Kα were 10 to 20% and 0 to 10%, respectively. Further, the values for the IC50 on PI3Kδ and on PI3Kγ were 33.3 nM and 122 nM, respectively. The inhibition at 0.1 µM lay within 80 to 100% against PI3Kδ and 20 to 40% on PI3Kγ.
On to `C[C@@H](c1cc2cccc(Cl)c2c(=O)n1-c1ccccc1)n1nc(-c2ccc(OC(F)F)c(F)c2)c2c(N)ncnc21` [Example 17a, (+)-3-(1-(4-amino-3-(4-(difluoromethoxy)-3-fluorophenyl)-1H-pyrazolo[3,4-d]pyrimidin-1-yl)ethyl)-8-chloro-2-phenylisoquinolin-1(2H)-one], for which the inhibition at 1 µM against PI3Kβ and against PI3Kα was 0 to 10% each time. Moreover, the values for the inhibition at 0.1 µM against PI3Kδ and at PI3Kγ were 20 to 40% and 0 to 20%, respectively.
On to `CC(C)Oc1ccc(-c2nn(C(C)c3nc4cccc(F)c4c(=O)n3-c3ccccc3)c3ncnc(N)c23)cc1F` (centres unmarked) [Example 3, 2-(1-(4-amino-3-(3-fluoro-4-isopropoxyphenyl)-1H-pyrazolo[3,4-d]pyrimidin-1-yl)ethyl)-5-fluoro-3-phenylquinazolin-4(3H)-one], for which the inhibition at 1 µM against PI3Kβ was 10 to 20%; against PI3Kα, 0 to 10%. Further, the inhibition at 0.1 µM against PI3Kδ and against PI3Kγ was 0 to 20% throughout.
Molecule `CC(c1cc2cccc(Cl)c2c(=O)n1-c1ccccc1)n1nc(-c2ccc(OC(F)F)c(F)c2)c2c(N)ncnc21` (centres unmarked) (as salt: potassium) [Example 17, 3-(1-(4-amino-3-(4-(difluoromethoxy)-3-fluorophenyl)-1H-pyrazolo[3,4-d]pyrimidin-1-yl)ethyl)-8-chloro-2-phenylisoquinolin-1(2H)-one] came in with a melting point of 160 to 162 °C.
Consider `COc1ccc(-c2nn([C@@H](C)c3cc4ccccc4c(=O)n3-c3ccccc3)c3ncnc(N)c23)cc1NS(C)(=O)=O` [Example 9a, (+)—N-(5-(4-amino-1-(1-(1-oxo-2-phenyl-1,2-dihydroisoquinolin-3-yl)ethyl)-1H-pyrazolo[3,4-d]pyrimidin-3-yl)-2-methoxyphenyl)methanesulfonamide], for which the inhibition at 1 µM against PI3Kβ lay within 20 to 40%; against PI3Kα, 0 to 10%. In addition, the concentration for half-maximal inhibition (IC50) against PI3Kδ was determined as 16.2 nM; against PI3Kγ it was 203 nM. In addition, the results for the inhibition at 0.1 µM against PI3Kδ and at PI3Kγ were 80 to 100% and 40 to 60%, respectively.
For the molecule `CC(c1cc2cccc(Cl)c2c(=O)n1-c1ccccc1)n1nc(-c2ccc(OC(F)F)c(F)c2)c2c(N)ncnc21` (centres unmarked) [Example 17, 3-(1-(4-amino-3-(4-(difluoromethoxy)-3-fluorophenyl)-1H-pyrazolo[3,4-d]pyrimidin-1-yl)ethyl)-8-chloro-2-phenylisoquinolin-1(2H)-one], the inhibition at 1 µM at PI3Kβ was 40 to 60%; on PI3Kα, 20 to 40%. The inhibition at 0.1 µM against PI3Kδ and against PI3Kγ was 80 to 100% throughout.
For the molecule `CC(C)Oc1ccc(-c2nn(C(C)c3cc4ccccc4c(=O)n3-c3ccccc3)c3ncnc(N)c23)cc1F` (centres unmarked) [Example 5, 3-(1-(4-amino-3-(3-fluoro-4-isopropoxyphenyl)-1H-pyrazolo[3,4-d]pyrimidin-1-yl)ethyl)-2-phenylisoquinolin-1(2H)-one], the inhibition at 1 µM lay in the range of 10 to 20% against PI3Kβ and 0 to 10% on PI3Kα. Further, the results for the inhibition at 0.1 µM against PI3Kδ and against PI3Kγ were 80 to 100% and 60 to 80%, respectively.
Regarding `CC(C)Oc1ccc(-c2nn([C@@H](C)c3cc4ccccc4c(=O)n3-c3ccccc3)c3ncnc(N)c23)cc1F` [Example 5a, (+)-3-(1-(4-amino-3-(3-fluoro-4-isopropoxyphenyl)-1H-pyrazolo[3,4-d]pyrimidin-1-yl)ethyl)-2-phenylisoquinolin-1(2H)-one], the figures for the inhibition at 1 µM at PI3Kβ and against PI3Kα were 20 to 40% and 0 to 10%, respectively. Moreover, the IC50 against PI3Kδ was determined as 3.05 nM; on PI3Kγ, 22.2 nM. In addition, the values for the inhibition at 0.1 µM against PI3Kδ and at PI3Kγ were 80 to 100% and 60 to 80%, respectively.
Regarding `Cc1n[nH]c2cc(-c3nn([C@@H](C)c4cc5cccc(Cl)c5c(=O)n4-c4ccccc4)c4ncnc(N)c34)ccc12` [Example 21a, (+)-3-(1-(4-amino-3-(3-methyl-1H-indazol-6-yl)-1H-pyrazolo[3,4-d]pyrimidin-1-yl)ethyl)-8-chloro-2-phenylisoquinolin-1(2H)-one], the inhibition at 1 µM on PI3Kβ and at PI3Kα was 0 to 10% throughout. In addition, the inhibition at 0.1 µM at PI3Kδ fell in the range of 80 to 100%; against PI3Kγ it was 60 to 80%.
Take `CC(C)Oc1ccc(-c2nn(C(C)c3nc4ccccc4c(=O)n3-c3ccccc3)c3ncnc(N)c23)cc1F` (centres unmarked) [Example 6, 2-(1-(4-amino-3-(3-fluoro-4-isopropoxyphenyl)-1H-pyrazolo[3,4-d]pyrimidin-1-yl)ethyl)-3-phenylquinazolin-4(3H)-one]: the inhibition at 1 µM against PI3Kβ and against PI3Kα was 0 to 10% throughout. In addition, the inhibition at 0.1 µM against PI3Kδ was in the range of 80 to 100%; on PI3Kγ it was 40 to 60%.
Consider `CC(C)Oc1ccc(-c2nn(C(C)c3cc4cccc(F)c4c(=O)n3-c3ccccc3)c3ncnc(N)c23)cc1F` (centres unmarked) (as salt: potassium) [Example 2, 3-(1-(4-amino-3-(3-fluoro-4-isopropoxyphenyl)-1H-pyrazolo[3,4-d]pyrimidin-1-yl)ethyl)-8-fluoro-2-phenylisoquinolin-1(2H)-one], for which the melting point was in the range of 264 to 266 °C.
Regarding `C[C@@H](c1cc2ccccc2c(=O)n1-c1ccccc1)n1nc(-c2ccc(O)c(F)c2)c2c(N)ncnc21` [Example 7a, (+)-3-(1-(4-amino-3-(3-fluoro-4-hydroxyphenyl)-1H-pyrazolo[3,4-d]pyrimidin-1-yl)ethyl)-2-phenylisoquinolin-1(2H)-one], the inhibition at 1 µM on PI3Kβ lay within 20 to 40%; against PI3Kα, 0 to 10%. For the same molecule, the results for the IC50 on PI3Kδ and on PI3Kγ were 13.3 nM and 57.7 nM, respectively. Also, the inhibition at 0.1 µM at PI3Kδ and on PI3Kγ was 60 to 80% each time.
In the case of `CC(C)Oc1ccc(-c2nn(C(C)c3nc4ccc(F)cc4c(=O)n3-c3ccccc3)c3ncnc(N)c23)cc1F` (centres unmarked) [Example 4, 2-(1-(4-amino-3-(3-fluoro-4-isopropoxyphenyl)-1H-pyrazolo[3,4-d]pyrimidin-1-yl)ethyl)-6-fluoro-3-phenylquinazolin-4(3H)-one], the inhibition at 1 µM was 20 to 40% against PI3Kβ and 0 to 10% at PI3Kα. Moreover, the results for the inhibition at 0.1 µM on PI3Kδ and at PI3Kγ were 0 to 20% and 40 to 60%, respectively.

By melting point is commonly meant the temperature of the solid-liquid transition. What is called inhibition is the relative decrease from the control value, in per cent. A lower inhibition goes with a weak effect. What is called IC50 is the concentration that inhibits the measured activity by half. Higher therefore signals weaker potency.

For the origin of these results see patent US11352359B2, “PI3K protein kinase inhibitors” (Rhizen Pharmaceuticals SA, priority 2013, dated 2022).
